This note sets out measurements from ChEMBL document CHEMBL5465560, “Selectivity Literature for EUbOPEN Chemogenomic Library” (2024).

The target of test [1] is T1, Calcium/calmodulin-dependent protein kinase type IV (Homo sapiens) (UniProt Q16566).
T1 sequence (whole entry): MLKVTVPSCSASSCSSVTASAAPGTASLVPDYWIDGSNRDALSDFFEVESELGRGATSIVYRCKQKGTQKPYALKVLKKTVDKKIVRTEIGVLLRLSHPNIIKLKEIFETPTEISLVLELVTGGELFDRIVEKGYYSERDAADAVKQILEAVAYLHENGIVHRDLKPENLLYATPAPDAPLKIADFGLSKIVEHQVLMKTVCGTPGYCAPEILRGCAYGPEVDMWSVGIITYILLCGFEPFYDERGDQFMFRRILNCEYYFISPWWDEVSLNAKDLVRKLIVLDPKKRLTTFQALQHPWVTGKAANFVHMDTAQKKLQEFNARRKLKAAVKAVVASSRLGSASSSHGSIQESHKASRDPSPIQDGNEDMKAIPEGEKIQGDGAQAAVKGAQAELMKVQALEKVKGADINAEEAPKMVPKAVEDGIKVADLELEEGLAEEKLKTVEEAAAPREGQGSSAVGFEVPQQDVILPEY
Description: Selectivity interaction (Kinase panel (Z-LYTE Assay)) EUB0001632a CAMK4. Conditions: at 10 µM.

The target in test [2] is T2, Serine/threonine-protein kinase DCLK2 (Homo sapiens) (UniProt Q8N568).
T2 sequence (whole entry): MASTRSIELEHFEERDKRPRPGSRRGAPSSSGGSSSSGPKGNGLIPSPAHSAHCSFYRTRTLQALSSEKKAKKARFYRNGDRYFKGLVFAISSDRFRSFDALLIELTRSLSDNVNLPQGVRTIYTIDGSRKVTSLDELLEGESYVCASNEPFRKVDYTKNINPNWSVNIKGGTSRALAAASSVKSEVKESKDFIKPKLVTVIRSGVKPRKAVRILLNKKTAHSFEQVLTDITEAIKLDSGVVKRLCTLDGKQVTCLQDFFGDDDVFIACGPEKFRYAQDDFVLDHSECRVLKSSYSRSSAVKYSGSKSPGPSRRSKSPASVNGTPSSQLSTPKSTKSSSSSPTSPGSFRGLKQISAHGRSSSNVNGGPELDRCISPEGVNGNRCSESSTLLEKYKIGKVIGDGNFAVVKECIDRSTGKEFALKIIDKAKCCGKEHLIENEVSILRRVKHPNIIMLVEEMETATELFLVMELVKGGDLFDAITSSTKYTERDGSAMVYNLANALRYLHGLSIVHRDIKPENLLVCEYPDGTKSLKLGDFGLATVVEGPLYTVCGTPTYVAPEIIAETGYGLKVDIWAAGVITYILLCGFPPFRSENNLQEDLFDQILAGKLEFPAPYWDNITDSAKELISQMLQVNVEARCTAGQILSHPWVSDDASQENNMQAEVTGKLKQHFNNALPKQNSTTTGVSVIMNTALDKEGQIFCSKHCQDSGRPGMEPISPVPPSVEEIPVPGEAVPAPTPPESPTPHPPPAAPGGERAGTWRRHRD
The settings on record: at 10 µM.

The target in test [3] is Cyclin-dependent kinase 9 (Homo sapiens, UniProt P50750). Conditions: at 10 µM.
The target of test [4] is Phosphatidylinositol 4-phosphate 5-kinase type-1 gamma (Homo sapiens) (UniProt O60331). Description: Selectivity interaction (KinomeScan (DiscoverX)) EUB0001619a PIP5K1C. The settings on record: at 1 µM.
The target in test [5] is T3, Serine/threonine-protein kinase Nek9 (Homo sapiens) (UniProt Q8TD19).
T3 sequence (whole entry): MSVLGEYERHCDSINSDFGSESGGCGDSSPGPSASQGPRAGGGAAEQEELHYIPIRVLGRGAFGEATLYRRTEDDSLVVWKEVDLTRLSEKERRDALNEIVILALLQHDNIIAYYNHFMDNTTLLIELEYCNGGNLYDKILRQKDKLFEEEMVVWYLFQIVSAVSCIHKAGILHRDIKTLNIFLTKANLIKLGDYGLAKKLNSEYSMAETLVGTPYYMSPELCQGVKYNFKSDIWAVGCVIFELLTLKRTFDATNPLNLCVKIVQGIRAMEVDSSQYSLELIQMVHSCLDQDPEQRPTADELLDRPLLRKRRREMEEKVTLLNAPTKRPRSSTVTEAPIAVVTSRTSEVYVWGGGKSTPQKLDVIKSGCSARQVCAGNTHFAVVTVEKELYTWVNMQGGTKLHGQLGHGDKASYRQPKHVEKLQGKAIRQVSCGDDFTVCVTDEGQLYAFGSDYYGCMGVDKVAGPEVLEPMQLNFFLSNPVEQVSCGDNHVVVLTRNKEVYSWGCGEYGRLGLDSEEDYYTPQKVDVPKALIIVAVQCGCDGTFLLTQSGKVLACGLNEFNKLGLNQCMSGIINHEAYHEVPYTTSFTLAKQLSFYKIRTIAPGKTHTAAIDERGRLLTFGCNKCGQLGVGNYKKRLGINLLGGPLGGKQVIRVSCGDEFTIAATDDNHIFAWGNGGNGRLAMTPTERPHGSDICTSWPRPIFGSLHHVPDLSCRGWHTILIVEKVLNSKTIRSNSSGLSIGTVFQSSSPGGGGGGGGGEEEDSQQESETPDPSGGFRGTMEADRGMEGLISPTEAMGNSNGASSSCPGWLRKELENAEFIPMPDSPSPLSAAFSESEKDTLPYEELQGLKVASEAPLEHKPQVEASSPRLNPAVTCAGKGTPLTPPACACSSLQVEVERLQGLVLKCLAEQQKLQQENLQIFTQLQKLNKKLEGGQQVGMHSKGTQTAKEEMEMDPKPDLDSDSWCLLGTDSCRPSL
Description: Selectivity interaction (KinomeScan (DiscoverX)) EUB0000607a NEK9. The settings on record: at 10 µM.

For test [6], the target named is Death-associated protein kinase 3 (Homo sapiens) (UniProt O43293). The test is described as follows: Selectivity interaction (Kinase panel (Invitrogen)) EUB0000639a DAPK3. The settings on record: at 200 nM.
Test [7] addresses Ribosomal protein S6 kinase alpha-1 (Homo sapiens, UniProt Q15418). Description: Selectivity interaction (ActivX KiNativ screen (kinase selectivity in THP-1 cell lysates)) EUB0000639a RPS6KA1. The format is subcellular. Conditions: lysate.
Test [8] deals with Casein kinase I isoform alpha (Homo sapiens, UniProt P48729). The test is described as follows: Selectivity interaction (Ambit KINOMEscan and KiNATiv profiling in Jurkat cells) EUB0000090b CSNK1A1. Type of test: cell-based. Conditions: at 1 µM.
Test [9] has as its target Protein arginine N-methyltransferase 8 (Homo sapiens, UniProt Q9NR22). Description: Selectivity interaction (Transferase panel (protein, RNA, and DNA methyltransferases. and EP300 (acetyltransferase))) EUB0000270b PRMT8.
For test [10], the target named is Tyrosine-protein kinase FRK (Homo sapiens) (UniProt P42685). The test is described as follows: Selectivity interaction (KinomeScan (DiscoverX)) EUB0000618a FRK. Conditions: at 10 µM.
Test [11] concerns the target Proto-oncogene tyrosine-protein kinase ROS (Homo sapiens) (UniProt P08922). Description: Selectivity interaction (KinomeScan (DiscoverX)) EUB0000092b ROS1. The settings on record: at 10 µM.

Where only a bound is given, the exact number is not on record here.

Chain of Ribosomal protein S6 kinase alpha-1 (Q15418 whole entry, canonical isoform): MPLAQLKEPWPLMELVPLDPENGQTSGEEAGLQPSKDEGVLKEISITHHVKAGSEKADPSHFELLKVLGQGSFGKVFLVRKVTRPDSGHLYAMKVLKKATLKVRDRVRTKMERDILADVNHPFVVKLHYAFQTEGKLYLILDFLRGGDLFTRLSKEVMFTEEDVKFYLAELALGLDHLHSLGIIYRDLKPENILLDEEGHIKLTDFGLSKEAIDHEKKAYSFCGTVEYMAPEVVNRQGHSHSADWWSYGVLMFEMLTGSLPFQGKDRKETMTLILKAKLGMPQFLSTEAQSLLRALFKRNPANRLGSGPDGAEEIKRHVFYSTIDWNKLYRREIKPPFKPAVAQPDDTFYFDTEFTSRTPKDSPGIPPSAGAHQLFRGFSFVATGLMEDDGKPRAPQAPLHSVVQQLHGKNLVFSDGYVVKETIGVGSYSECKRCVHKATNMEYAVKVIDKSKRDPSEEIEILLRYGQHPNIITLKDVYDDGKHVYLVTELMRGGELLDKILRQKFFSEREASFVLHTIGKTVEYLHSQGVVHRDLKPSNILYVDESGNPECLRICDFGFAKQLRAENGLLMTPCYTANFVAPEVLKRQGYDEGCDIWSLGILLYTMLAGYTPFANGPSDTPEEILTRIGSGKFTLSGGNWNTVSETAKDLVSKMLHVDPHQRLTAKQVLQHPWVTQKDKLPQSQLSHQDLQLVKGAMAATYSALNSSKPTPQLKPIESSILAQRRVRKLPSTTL
Chain of Protein arginine N-methyltransferase 8 (Q9NR22 2-394 limits assumed): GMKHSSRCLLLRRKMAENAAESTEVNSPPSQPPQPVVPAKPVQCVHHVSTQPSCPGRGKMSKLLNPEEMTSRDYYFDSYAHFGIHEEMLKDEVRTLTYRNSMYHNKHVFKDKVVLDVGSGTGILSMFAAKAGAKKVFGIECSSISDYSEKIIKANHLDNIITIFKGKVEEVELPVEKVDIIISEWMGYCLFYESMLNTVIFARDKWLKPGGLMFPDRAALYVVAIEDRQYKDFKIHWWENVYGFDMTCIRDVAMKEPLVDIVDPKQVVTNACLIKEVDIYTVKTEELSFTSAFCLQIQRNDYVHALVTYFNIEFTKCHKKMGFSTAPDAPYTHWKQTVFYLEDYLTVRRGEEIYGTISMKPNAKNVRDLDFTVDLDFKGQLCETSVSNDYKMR
Chain of Tyrosine-protein kinase FRK (Homo sapiens) (P42685 whole entry): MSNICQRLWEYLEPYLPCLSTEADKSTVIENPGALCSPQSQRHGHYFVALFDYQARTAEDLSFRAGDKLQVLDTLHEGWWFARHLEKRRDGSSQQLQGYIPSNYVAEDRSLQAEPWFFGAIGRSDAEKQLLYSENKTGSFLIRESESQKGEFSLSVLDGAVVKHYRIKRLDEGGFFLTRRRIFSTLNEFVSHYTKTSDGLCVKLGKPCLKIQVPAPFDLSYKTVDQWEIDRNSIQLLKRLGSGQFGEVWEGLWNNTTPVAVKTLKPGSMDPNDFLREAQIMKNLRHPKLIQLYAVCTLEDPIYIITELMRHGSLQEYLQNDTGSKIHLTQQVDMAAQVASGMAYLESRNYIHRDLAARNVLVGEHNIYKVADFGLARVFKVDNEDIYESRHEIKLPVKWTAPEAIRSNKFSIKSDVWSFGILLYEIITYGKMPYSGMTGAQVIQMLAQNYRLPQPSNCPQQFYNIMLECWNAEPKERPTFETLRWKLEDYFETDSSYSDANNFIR
Chain of Proto-oncogene tyrosine-protein kinase ROS (Homo sapiens) (P08922 whole entry): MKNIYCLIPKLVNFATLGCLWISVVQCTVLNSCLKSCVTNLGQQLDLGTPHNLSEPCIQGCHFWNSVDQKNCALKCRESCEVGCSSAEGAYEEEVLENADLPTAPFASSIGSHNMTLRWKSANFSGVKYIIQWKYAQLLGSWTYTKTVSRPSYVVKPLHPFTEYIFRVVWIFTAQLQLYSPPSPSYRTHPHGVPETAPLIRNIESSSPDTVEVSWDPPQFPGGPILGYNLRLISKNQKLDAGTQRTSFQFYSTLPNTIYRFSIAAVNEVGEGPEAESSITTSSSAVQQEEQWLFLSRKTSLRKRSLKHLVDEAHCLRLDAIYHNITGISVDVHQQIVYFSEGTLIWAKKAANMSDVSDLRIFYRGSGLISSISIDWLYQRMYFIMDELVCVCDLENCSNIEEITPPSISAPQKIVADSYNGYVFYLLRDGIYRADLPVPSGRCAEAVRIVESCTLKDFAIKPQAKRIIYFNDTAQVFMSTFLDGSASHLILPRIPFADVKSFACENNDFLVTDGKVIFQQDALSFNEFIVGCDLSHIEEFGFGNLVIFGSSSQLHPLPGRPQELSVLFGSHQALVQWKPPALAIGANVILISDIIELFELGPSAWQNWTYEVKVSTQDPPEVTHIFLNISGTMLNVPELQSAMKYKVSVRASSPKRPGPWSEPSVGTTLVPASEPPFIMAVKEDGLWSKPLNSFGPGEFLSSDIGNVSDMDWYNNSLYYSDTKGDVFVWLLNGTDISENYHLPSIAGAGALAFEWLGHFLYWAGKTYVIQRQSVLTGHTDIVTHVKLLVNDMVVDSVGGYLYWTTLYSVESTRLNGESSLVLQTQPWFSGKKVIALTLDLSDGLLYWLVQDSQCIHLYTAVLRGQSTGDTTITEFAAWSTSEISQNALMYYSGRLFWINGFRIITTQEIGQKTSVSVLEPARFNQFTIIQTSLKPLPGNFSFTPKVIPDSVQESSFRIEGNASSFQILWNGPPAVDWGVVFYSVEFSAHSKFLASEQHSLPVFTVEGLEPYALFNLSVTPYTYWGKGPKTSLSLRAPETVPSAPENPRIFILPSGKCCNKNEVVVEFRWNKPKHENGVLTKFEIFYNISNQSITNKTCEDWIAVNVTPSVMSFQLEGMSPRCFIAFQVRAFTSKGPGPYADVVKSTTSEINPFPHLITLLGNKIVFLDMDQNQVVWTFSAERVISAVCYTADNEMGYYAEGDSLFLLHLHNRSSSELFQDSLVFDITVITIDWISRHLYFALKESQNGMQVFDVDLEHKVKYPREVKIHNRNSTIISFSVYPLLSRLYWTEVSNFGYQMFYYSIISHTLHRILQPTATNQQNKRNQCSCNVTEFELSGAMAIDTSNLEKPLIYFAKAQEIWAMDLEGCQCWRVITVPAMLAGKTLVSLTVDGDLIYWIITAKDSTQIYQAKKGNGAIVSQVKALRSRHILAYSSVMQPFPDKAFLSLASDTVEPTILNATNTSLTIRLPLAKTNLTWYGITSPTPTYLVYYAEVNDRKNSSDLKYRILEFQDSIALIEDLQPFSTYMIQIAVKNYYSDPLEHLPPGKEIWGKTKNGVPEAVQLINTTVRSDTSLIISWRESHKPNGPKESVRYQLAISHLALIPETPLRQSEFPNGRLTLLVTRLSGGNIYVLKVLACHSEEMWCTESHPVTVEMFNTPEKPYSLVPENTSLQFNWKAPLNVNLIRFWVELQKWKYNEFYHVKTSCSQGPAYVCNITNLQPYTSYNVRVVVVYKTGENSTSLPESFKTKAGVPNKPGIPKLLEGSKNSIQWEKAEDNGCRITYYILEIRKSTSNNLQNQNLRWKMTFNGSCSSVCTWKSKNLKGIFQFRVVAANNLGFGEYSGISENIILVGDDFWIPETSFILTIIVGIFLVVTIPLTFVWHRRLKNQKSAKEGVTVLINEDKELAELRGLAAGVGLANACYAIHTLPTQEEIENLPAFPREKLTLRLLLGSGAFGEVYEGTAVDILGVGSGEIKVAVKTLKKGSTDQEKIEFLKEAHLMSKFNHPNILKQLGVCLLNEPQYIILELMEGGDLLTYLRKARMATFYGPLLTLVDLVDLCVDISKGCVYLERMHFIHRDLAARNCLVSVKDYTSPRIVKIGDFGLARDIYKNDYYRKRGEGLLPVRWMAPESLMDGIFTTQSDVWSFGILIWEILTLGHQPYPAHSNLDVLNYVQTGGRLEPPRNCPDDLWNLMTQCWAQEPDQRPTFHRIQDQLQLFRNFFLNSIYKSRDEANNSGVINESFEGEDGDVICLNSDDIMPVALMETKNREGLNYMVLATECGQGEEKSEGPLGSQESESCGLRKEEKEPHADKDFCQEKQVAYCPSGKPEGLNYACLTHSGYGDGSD
Chain of Cyclin-dependent kinase 9 (P50750 whole entry): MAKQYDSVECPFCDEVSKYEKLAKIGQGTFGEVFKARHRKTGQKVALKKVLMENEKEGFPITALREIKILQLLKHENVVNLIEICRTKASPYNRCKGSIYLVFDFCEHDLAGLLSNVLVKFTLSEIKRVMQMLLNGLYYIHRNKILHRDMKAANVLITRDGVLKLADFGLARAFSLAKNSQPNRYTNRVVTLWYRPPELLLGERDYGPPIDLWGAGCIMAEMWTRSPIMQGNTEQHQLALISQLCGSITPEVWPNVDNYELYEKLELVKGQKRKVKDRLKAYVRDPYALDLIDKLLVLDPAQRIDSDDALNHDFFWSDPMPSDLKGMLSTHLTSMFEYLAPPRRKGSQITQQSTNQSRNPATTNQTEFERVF
Chain of Death-associated protein kinase 3 (Homo sapiens) (O43293 whole entry, looked up): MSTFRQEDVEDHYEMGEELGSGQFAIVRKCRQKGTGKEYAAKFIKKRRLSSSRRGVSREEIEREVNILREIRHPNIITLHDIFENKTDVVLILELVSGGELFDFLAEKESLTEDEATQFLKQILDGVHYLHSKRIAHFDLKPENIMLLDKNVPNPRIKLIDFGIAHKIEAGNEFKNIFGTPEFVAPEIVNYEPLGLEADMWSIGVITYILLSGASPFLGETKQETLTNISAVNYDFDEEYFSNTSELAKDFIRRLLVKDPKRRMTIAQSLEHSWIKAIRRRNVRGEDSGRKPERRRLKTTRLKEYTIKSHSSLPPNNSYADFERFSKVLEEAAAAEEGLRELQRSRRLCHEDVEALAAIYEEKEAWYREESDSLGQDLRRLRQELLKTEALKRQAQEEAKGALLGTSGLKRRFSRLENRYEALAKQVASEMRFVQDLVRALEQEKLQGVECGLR

Turning to `Cn1cc(-n2cnc3c(NCc4nc5cc(Cl)c(Cl)cc5[nH]4)nc(N4CCOCC4)nc32)cn1`, the % of control in test [1] was -4.99%.

Consider `COCC(=O)NC/C=C/c1ccc2ncnc(Nc3ccc(Oc4ccc(C)nc4)c(C)c3)c2c1` [CP-724714], for which the % of control in test [2] and in [3] was 100% in each case.

Regarding `N#Cc1cccc(-c2c[nH]c3ncnc(N4CCOCC4)c23)c1`, the % of control in [4] was 70%.

On to `CNC(=O)Nc1ccc(-c2nc(N3CC4CCC(C3)O4)c3cnn(C4CCC5(CC4)OCCO5)c3n2)cc1`, for which the % of control in test [5] is 100%.

As for `CC[C@@H]1[C@H](F)C(=O)N[C@@H]1COc1nccc2cc(C(N)=O)c(OC)cc12` [ZIMLOVISERTIB], the % of inhibition in [6] stood at 20.3%; in test [7] (at 0.01 µM) it was 18.6%; in test [7] (at 0.04 µM), 18%; in test [7] (at 0.2 µM), 14.6%; in test [7] (at 1 µM) it was 14.7%; in test [7] (at 5 µM), 7.3%.

As to `CN(C)C/C=C/C(=O)Nc1ccc(C(=O)N2CCCC(Nc3ncc(Cl)c(-c4c[nH]c5ccccc45)n3)C2)cc1` (stereo unspecified), the % of control in test [8] amounted to 51%.

For `Cc1cc(CN)cc(C)c1-c1ncn(C)c1-c1cncn1C`, the % activity was greater than 90% in [9] (at 1 µM) and greater than 80% in [9] (at 10 µM).

As to `O[C@H]1CC[C@H](Nc2ncc3nc(Nc4c(F)cc(F)cc4F)n([C@H]4CCOC4)c3n2)CC1`, the % of control in [10] stood at 100%.

As to `CCC(=O)N1CCN(c2ccc(-n3c(=O)ccc4cnc5ccc(-c6cnc7ccccc7c6)cc5c43)cc2C(F)(F)F)CC1`, the % of control in test [11] turned out to be 71%.
